Consider five compounds from patent US4808607A, “Imidazole analogs of mevalonolactone and derivatives thereof for use in inhibiting cholesterol biosynthesis and lowering blood cholesterol level” (Sandoz Pharm. Corp., priority 1987, dated 1989).

pIC50: −log10 of the molar value. Like-named read-outs stand apart in the source and are kept apart here.

What is called ED50 is the dose at which the effect has come halfway, by size or by number of responders. As a reminder, the pIC50 is the negative decadic logarithm of the IC50, by convention in mol/L.

The test system of assay [1] is 3β-hydroxysterol synthesis (cholesterol biosynthesis). As to the kind of experiment: Test B. In Vivo Cholesterol Biosynthesis Inhibition Test. Further details: species or system rat (male Wistar Royal Hart). The following applies: Rattus norvegicus, read-out: ED50 in Test B (dose producing 50% inhibition of 3β-hydroxysterol synthesis). The protocol: Test B. In Vivo Cholesterol Biosynthesis Inhibition Test: In vivo studies utilize male Wistar Royal Hart rats weighing 150±20 g. which have been kept for 7-10 days on an altered light cycle (6:30 A.M. - 6:30 P.M. dark) housed two per cage and fed powdered Purina Rat Chow and water ad libitum. Three hours before the diurnal maximum of cholesterol synthesis at mid-dark, the rats are administered orally the test substance (e.g., 0.001-200 mg./kg. body weight) dissolved or as a suspension in 0.5% carboxymethylcellulose in a volume of 1 ml./100 g. body weight. Controls receive vehicle alone. One hour after receiving the test substance (or the vehicle alone), the rats are injected intraperitoneally with about 25 μCi/100 g. body weight of sodium [1-^14 C]acetate 1-3 mCi/mmol. Two hours after mid-dark, blood samples are obtained under sodium hexobarbitol anesthesia, and the serum is separated by centrifugation. […] The [^14 C]digitonides are then counted by liquid scintillation spectrometry. After correcting for efficiencies, the results are calculated in nCi (nanocuries) of 3β-hydroxysterol formed per 100 ml. of serum.

The next assay concerns the target T1, HMG-CoA reductase (Rattus norvegicus, UniProt P51639).
T1 construct: In the assay the microsomes are the source of the HMG-CoA reductase enzyme; from tissue; host or cells: liver microsomes of male Sprague-Dawley rats
T1 sequence (P51639 1-887): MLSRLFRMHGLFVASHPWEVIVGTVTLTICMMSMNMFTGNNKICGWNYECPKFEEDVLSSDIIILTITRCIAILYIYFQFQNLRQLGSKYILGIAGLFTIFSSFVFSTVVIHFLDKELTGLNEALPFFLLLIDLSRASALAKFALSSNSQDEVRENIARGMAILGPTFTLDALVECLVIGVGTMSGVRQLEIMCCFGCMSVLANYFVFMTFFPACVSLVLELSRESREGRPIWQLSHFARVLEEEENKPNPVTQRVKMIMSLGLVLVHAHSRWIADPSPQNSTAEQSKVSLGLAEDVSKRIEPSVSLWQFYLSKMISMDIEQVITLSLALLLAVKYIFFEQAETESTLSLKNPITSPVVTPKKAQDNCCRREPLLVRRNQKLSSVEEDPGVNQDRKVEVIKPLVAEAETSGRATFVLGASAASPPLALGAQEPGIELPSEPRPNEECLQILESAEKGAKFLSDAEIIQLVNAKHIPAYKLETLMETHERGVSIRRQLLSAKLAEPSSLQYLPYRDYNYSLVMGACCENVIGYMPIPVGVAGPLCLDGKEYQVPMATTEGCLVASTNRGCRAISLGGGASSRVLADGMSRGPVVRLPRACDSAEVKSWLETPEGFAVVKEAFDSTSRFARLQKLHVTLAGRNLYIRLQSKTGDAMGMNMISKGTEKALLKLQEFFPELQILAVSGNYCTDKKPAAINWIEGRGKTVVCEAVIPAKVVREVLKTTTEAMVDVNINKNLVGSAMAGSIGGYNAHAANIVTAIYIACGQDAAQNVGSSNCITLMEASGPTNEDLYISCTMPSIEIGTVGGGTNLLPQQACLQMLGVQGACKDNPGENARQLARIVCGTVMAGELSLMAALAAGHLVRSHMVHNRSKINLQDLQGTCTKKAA
As to the kind of experiment: Test A. In Vitro Microsomal Assay of HMG-CoA Reductase Inhibition. The assay is classed as biochemical, rat (male Sprague-Dawley). The protocol: The compounds of Formula I and the pharmaceutically acceptable acid addition salts thereof are competitive inhibitors of 3-hydroxy-3-methylglutaryl coenzyme A (HMG-CoA) reductase, the rate limiting enzyme in cholesterol biosynthesis, and, therefore, they are inhibitors of cholesterol biosynthesis.
Test A. In Vitro Microsomal Assay of HMG--CoA Reductase Inhibition:
200 μl. aliquots (1.08-1.50 mg./ml.) of rat liver microsomal suspensions, freshly prepared from male SpragueDawley rats (150-225 g. body weight), in Buffer A with 10 mmol. dithiothreitol are incubated with 10 μl. of a solution of the test substance in dimethylacetamide and assayed for HMG--CoA reductase activity as described in Ackerman et al., J. Lipid Res. 18, 408-413 (1977), the concentration of the test substance in the assay system being 0.0001-2,000 μmolar. In the assay the microsomes are the source of the HMG-CoA reductase enzyme which catalyzes the reduction of HMG-CoA to mevalonate. The assay employs a chloroform extraction to separate the product, [^14 C]mevalonolactone, formed by the HMG-CoA reductase reduction of the substrate, [^14 C]HMG-CoA. [^3 H]mevalonolactone is added as an internal reference. Inhibition of HMG-CoA reductase is calculated from the decrease in specific activity ([^14 C/^3 H]mevalonate) of test groups compared to controls.
The IC50 is the concentration of the test substance in the assay system calculated or observed to produce a 50% inhibition of HMG-CoA reductase activity.

[2] abbreviates: oral, single dose, male rats, [1-14C]acetate i.p. 1 h after dose, serum 3β-hydroxysterols.
The mark [3] stands for this setting: rat liver microsomes, [14C]HMG-CoA substrate, test substance in dimethylacetamide, read-out: IC50 in Test A (50% inhibition of HMG-CoA reductase activity).

`CC(C)c1nc(-c2ccccc2)n(-c2ccc(F)cc2)c1/C=C/[C@@H](O)C[C@@H](O)CC(=O)O` (relative stereo) [Example 2, Sodium (±)-erythro-(E)-3,5-dihydroxy-7-[1'-(4"-fluorophenyl)-4'-(1"-methylethyl)-2'-phenyl-1H-imidazol-5'-yl]hept-6-enoate]: the ED50 in assay [1] (setting [2]) turned out to be 0.025 mg/kg. Moreover, the pIC50 on HMG-CoA reductase (setting [3]) is 8.59.
Consider `CC(C)c1nc(-c2ccccc2)n(-c2ccccc2)c1/C=C/[C@@H](O)C[C@@H](O)CC(=O)O` (relative stereo) [Example 10], for which, in assay [1] (setting [2]), the ED50 was determined as 0.028 mg/kg. Also, the pIC50 at HMG-CoA reductase (setting [3]) was 7.44.
Taken in the same sequence, the figures for `CC[C@H](C)C(=O)O[C@H]1CCC=C2C=C[C@H](C)[C@H](CC[C@@H]3C[C@@H](O)CC(=O)O3)[C@H]21` [Compactin, reference compound] were 3.5 mg/kg and 6.00.
Taken in the same sequence, the figures for `CC(C)c1nc(-c2ccccc2)n(-c2ccc(F)cc2)c1/C=C/[C@@H](O)C[C@@H](O)CC(=O)O` [Example 2A, Sodium (3R,5S)-(E)-3,5-dihydroxy-7-[1'-(4"-fluorophenyl)-4'-(1"-methylethyl)-2'-phenyl-1H-imidazol-5'-yl]hept-6-enoate] were 0.02 mg/kg and 8.70.
As for `CCC(C)C(=O)OC1CC(C)C=C2C=CC(C)C(CCC3CC(O)CC(=O)O3)C21` (stereo not shown) [Mevinolin, reference compound], in assay [1] (po, 1 h), the ED50 was 0.38 mg/kg. At HMG-CoA reductase, this compound had a pIC50 of 6.85.
